Values quoted from earlier work, collected in patent US20200237789A1, “COMBINATION THERAPY FOR PREVENTING ADDICTION” (Amygdala Neurosciences, Inc., priority 2017, published 2020).

What was measured:
[1] = target: T1, hMAO-A (Homo sapiens, UniProt P21397); conditions: read-out: IC50 hMAO-A
T1 sequence (P21397 1-527): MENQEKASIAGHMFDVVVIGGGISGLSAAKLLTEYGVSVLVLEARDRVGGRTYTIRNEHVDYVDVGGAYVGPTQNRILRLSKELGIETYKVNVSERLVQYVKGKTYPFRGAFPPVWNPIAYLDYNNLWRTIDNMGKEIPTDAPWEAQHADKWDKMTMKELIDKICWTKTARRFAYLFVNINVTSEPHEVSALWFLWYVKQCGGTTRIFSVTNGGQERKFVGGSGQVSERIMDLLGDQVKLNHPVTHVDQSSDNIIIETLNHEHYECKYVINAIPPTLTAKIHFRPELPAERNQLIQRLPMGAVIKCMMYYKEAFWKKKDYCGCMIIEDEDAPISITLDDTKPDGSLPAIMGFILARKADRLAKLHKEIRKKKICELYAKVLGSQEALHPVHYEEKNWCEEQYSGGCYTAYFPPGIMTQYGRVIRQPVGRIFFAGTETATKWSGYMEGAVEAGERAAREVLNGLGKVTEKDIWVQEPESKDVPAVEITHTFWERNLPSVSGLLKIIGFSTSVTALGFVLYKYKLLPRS

[2] = target: T2, hMAO-B (Homo sapiens, UniProt P27338); conditions: read-out: IC50 hMAO-B
T2 sequence (P27338 1-520): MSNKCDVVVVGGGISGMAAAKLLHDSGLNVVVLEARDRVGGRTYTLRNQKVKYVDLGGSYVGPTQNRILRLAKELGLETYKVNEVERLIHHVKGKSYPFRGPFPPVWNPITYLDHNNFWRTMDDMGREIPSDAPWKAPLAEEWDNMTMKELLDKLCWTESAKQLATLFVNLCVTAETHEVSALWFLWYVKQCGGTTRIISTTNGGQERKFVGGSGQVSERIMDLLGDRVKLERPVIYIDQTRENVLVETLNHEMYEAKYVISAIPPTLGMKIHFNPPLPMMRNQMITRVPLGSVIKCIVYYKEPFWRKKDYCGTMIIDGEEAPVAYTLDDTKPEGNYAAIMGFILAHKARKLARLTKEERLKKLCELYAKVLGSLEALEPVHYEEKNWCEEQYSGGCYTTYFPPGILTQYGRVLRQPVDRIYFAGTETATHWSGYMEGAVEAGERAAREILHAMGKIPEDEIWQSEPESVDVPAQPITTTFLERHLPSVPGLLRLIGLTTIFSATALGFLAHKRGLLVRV

[3] = target: T3, human ALDH-2 enzyme (Homo sapiens, UniProt P05091); conditions: read-out: IC50 ALDH-2
T3 sequence (P05091 18-517): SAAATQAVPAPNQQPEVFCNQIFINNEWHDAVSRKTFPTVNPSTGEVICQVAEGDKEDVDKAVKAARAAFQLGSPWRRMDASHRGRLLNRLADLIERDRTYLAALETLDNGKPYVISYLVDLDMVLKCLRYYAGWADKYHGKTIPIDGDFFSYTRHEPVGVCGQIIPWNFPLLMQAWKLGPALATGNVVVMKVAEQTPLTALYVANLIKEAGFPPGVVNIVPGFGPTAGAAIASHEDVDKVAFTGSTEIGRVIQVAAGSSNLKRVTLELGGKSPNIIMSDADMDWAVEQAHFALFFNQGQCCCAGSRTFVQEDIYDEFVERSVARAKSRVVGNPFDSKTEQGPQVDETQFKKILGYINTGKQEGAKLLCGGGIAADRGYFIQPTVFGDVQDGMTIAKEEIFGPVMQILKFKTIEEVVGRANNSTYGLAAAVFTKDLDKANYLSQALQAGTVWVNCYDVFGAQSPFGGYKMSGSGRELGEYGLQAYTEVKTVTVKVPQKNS

Compound | IC50 [1] [µM] | IC50 [2] [µM] | IC50 [3] [µM]
COCCOc1cc(Cl)c(C(=O)NCc2ccc(-c3cc[nH]c(=O)c3)cc2)c(Cl)c1 [(3), 2,6-dichloro-4-(2-methoxyethoxy)-N-(4-(2-oxo-1,2-dihydropyridin-4-yl)benzyl)benzamide] | > 130 | > 130 | –
O=C(NCc1ccc(-c2cc[nH]c(=O)c2)cc1)c1cccc(F)c1Cl [(4), 2-chloro-3-fluoro-N-(4-(2-oxo-1,2-dihydropyridin-4-yl)benzyl)benzamide] | > 130 | > 130 | –
Cc1cccc(C)c1C(=O)NCc1ccc(-c2cc[nH]c(=O)c2)cc1 [(6), 2,6-dimethyl-N-(4-(2-oxo-1,2-dihydropyridin-4-yl)benzyl)benzamide] | > 130 | > 130 | –
O=C(NCc1ccc(-c2cc[nH]c(=O)c2)cc1)c1c(F)ccc(F)c1Cl [(8), 2-chloro-3,6-difluoro-N-(4-(2-oxo-1,2-dihydropyridin-4-yl)benzyl)benzamide] | > 130 | > 130 | –
O=C(NCc1ccc(-c2cc[nH]c(=O)c2)cc1)c1c(F)cccc1F [(11), 2,6-difluoro-N-(4-(2-oxo-1,2-dihydropyridin-4-yl)benzyl)benzamide] | > 130 | > 130 | –
O=C(NCc1ccc(-c2cc[nH]c(=O)c2)cc1F)c1c(Cl)cccc1Cl [(13), 2,6-dichloro-N-(2-fluoro-4-(2-oxo-1,2-dihydropyridin-4-yl)benzyl)benzamide] | > 130 | > 130 | –
O=C(NCc1ccc(-c2ccn(COP(=O)(O)O)c(=O)c2)cc1)c1c(Cl)cccc1Cl [compound (2), phosphoric acid mono-(4-{4-[(2,6-dichloro-benzoylamino)-methyl]-phenyl}-2-oxo-2H-pyridin-1-ylmethyl) ester] | > 130 | > 130 | > 10

Further lines, with some results ahead:

IC50 [1] [µM] | IC50 [2] [µM] | Compound | IC50 [3] [µM]
> 130 | > 130 | Cc1cccc(Cl)c1C(=O)NCc1ccc(-c2cc[nH]c(=O)c2)cc1 [(5), 2-chloro-6-methyl-N-(4-(2-oxo-1,2-dihydropyridin-4-yl)benzyl)benzamide] | –
> 130 | > 130 | Cc1cc(-c2ccc(CNC(=O)c3c(Cl)cccc3Cl)cc2)cc(=O)[nH]1 [(7), 2,6-dichloro-N-[4-(6-methyl-2-oxo-1,2-dihydro-pyridin-4-yl)-benzyl]-benzamide] | –
> 130 | > 130 | Cc1cc(CNC(=O)c2c(Cl)cccc2Cl)ccc1-c1cc[nH]c(=O)c1 [(9), 2,6-dichloro-N-(3-methyl-4-(2-oxo-1,2-dihydropyridin-4-yl)benzyl)benzamide] | –
> 130 | > 130 | Cn1ccc(-c2ccc(CNC(=O)c3c(Cl)cccc3Cl)cc2)cc1=O [(10), 2,6-dichloro-N-(4-(1-methyl-2-oxo-1,2-dihydropyridin-4-yl)benzyl)benzamide] | –
> 130 | > 130 | O=C(NCc1ccc(-c2cc[nH]c(=O)c2)cc1)c1c(F)cccc1Cl [(12), 2-chloro-6-fluoro-N-(4-(2-oxo-1,2-dihydropyridin-4-yl)benzyl)benzamide] | –
> 130 | > 130 | O=C(NCc1ccc(-c2cc(=O)[nH]cc2F)cc1)c1c(Cl)cccc1Cl [(14), 2,6-dichloro-N-(4-(5-fluoro-2-oxo-1,2-dihydropyridin-4-yl)benzyl)benzamide] | –
> 130 | > 130 | O=C(NCc1ccc(-c2cc[nH]c(=O)c2)cc1)c1c(Cl)cccc1Cl [compound (1), 2,6-dichloro-N-[4-(2-oxo-1,2-dihydro-pyridin-4-yl)-benzyl]-benzamide] | –
